Consider 16 compounds from patent US11634409B2, “Compounds for the treatment of BRAF-associated diseases and disorders” (Array BioPharma Inc., priority 2019, dated 2023).

Where two headings read alike, the source gives them in different places.

Series [1] concerns LLC-PK1 or MDCKII cell monolayer. Briefly: MDR1 LLC-PK1 and BCRP MDCKII permeability assay (Papp). Conditions: Papp; test article 1 μM, 2 hours, 37° C.
Procedure: (§4) MDR1 LLC-PK1 and BCRP MDCKII Permeability Assay
(§5) Both LLC-PK1 and MDR1 transfected LLC-PK1 cells were cultured and plated according to manufacturer's recommendations with the exception that the passage media contained only 2% fetal bovine serum to extend passage time out to seven days.
(§6) BCRP transfected MDCKII cells were cultured and plated according to manufacturer's recommendations. Assay conditions included with and without the BCRP-specific inhibitor, KO0143, at a concentration of 0.3 μM to ascertain the contribution of BCRP to the efflux value of the test compound.
(§7) Both positive and negative controls were used to assess functionality of P-gp or BCRP efflux in the assays. […] Final organic concentration in the assay was 1%. All dosing solutions contained 10 μM lucifer yellow to monitor LLC-PK1 or MDCKII cell monolayer integrity.
(§8) For the apical to basolateral determination (A to B), 75 μL of the test article in transport buffer were added to the apical side of the individual transwells and 250 μL of basolateral media, without compound or lucifer yellow, were added to each well. For the basolateral to apical determination (B to A), 250 μL of test article in transport buffer were added to each well and 75 μL transport buffer, without compound or lucifer yellow, were added to each transwell. All tests were performed in triplicate, and each compound was tested for both apical to basolateral and basolateral to apical transport. The plates were incubated for 2 hours on a Lab-Line Instruments Titer Orbital Shaker (VWR, West Chester, Pa.) at 50 rpm and 37° C. with 5% CO2. All culture plates were removed from the incubator and 50 μL of media were removed from the apical and basolateral portion of each well and added to 150 μL of 1 μM labetalol in 2:1 acetonitrile (acetonitrile): H2O, v/v.
(§9) These values were accepted when found to be below 2% for apical to basolateral and 5% basolateral to apical flux across the MDR1-transfected LLC-PK1 or BCRP-transfected MDCKII cell monolayers. The plates were sealed and the contents of each well analyzed by LC-MS/MS. The compound concentrations were determined from the ratio of the peak areas of the compound to the internal standard (labetalol) in comparison to the dosing solution.
(§10) The LC-MS/MS system was comprised of an HTS-PAL autosampler (Leap Technologies, Carrboro, N.C.), an HP1200 HPLC (Agilent, Palo Alto, Calif.), and a MDS Sciex 4000 Q Trap system (Applied Biosystems, Foster City, Calif.). […] The total run time, including re-equilibration, for a single injection was 1.2 minutes. Mass spectrometric detection of the analytes was accomplished using the ion spray positive mode.
(§11) where Cd, V, t and C0 are the detected concentration (μM), the volume on the dosing side (mL), the incubation time (s) and the initial dosing concentration (μM), respectively. The calculations for Papp were made for each replicate and then averaged.
Series [2] has as its target T1, BCRP (Homo sapiens (Human), UniProt Q9UNQ0). The series is described as follows: BCRP efflux ratio in BCRP transfected MDCKII cells. As to conditions: for BCRP efflux ratio: Papp(B−A)/Papp(A−B), BCRP transfected MDCKII cells, 1 μM; for efflux ratio at 2 h, 1 μM: dog.
Procedure: as §4, §6, §7, §8, §9, §10
(§12) An efflux ratio is calculated from the mean apical to basolateral (A-B) Papp data and basolateral to apical (B-A) Papp data: Efflux ratio=Papp(B−A)/Papp(A−B)
In series [3] the target is full-length FLAG-tagged B-Raf(V600E) (Homo sapiens (Human), UniProt P15056, V600E). Briefly: BRAF V600E enzyme assay (TR-FRET competitive displacement). Format: binding. As to conditions: averaged IC50; 60 min, ambient temperature. From the text:
(§1) A competitive displacement assay was configured for B-Raf that monitors the amount of a fluorescently-tagged “tracer” bound to B-Raf via TR-FRET from an anti-tag Eu-labeled antibody also bound to B-Raf.
(§2) [formula] • where: • Xmax Average Uninhibited Controls • Xm Average Background
(§3) A 4-parameter logistic model was the fit to the POC data for each compound.

In series [4] the target is T2, P-gp (MDR1) (Homo sapiens (Human), UniProt P08183). The series is described as follows: MDR1 efflux ratio in MDR1 transfected LLC-PK1 cells. Conditions: for MDR1 efflux ratio: Papp(B−A)/Papp(A−B), MDR1 transfected LLC-PK1 cells, 1 μM; for efflux ratio at 2 h, 1 μM: pig, LLC-PK1.
Procedure: as §5, §7, §8, §9, §10, §12
Series [5] relates to LLC-PK1 or MDCKII cell monolayer.
Procedure: as §4, §5, §6, §7, §8, §9, §10, §11
The nature of series [6]: MDR1 LLC-PK1 and BCRP MDCKII permeability assay (Papp).
Procedure: as §4, §5, §6, §7, §8, §9, §10, §11
Series [7] is described as follows: PK (free brain-to-free plasma ratio) (mouse). Format: in vivo. Conditions: male CD-1 mice, oral gavage 10 mg/kg, (B/P)*(Bfu/Pfu). The procedure: PK (Free Brain-to-Free Plasma Ratio) (Mouse)
The ability of representative compounds to penetrate the BBB in mice was determined by evaluating the unbound brain-to-unbound plasma (also referred to as free brain-to-free plasma) concentration ratio in male CD-1 mice.
Brain samples were stored at −20±5° C. prior to analysis. Concentrations of test compound in mouse brain homogenate were determined by liquid chromatography tandem mass spectrometry (LC-MS/MS) following protein precipitation with acetonitrile. A 12-point calibration curve, ranging from 0.5 to 10,000 ng/mL, was prepared in duplicate. A solution of 400 μg/mL of test compound in dimethyl sulfoxide (DMSO) was serially diluted (3-fold) in 100% DMSO, and then 2.5 μL of each standard solution was added to 100 μL of naïve male CD-1 mice brain homogenate. To mimic the extraction in the standard curve, 2.5 μL of DMSO was added to all test samples. […]
Brain-to-plasma ratios were calculated using the concentration of compound measured in the brain divided by the concentration of compound measured in the plasma. […] Free brain-to-free plasma ratios were calculated by multiplying the brain-to-plasma ratio by the in vitro brain homogenate free fraction divided by the in vitro plasma free fraction using the following equation: (B/P)*(Bfu/Pfu).

For another series, the target named is GST-tagged B-Raf(V600K) (Homo sapiens, UniProt P15056, V600K). The series is described as follows: BRAF V600K enzyme assay (TR-FRET competitive displacement). Format: binding. As to conditions: averaged IC50; 60 min, ambient temperature.
Source text: as §1, §2, §3

Series [8] relates to BCRP. As to conditions: reported by Mittapalli et al.; cited from earlier work.
Series [9] addresses T2, P-gp (MDR1). As to conditions: pig, LLC-PK1, 2 h, 1 μM.
Procedure: as §5, §7, §8, §9, §10, §12
Series [10] concerns the target T1, BCRP. As to conditions: dog, 2 h, 1 μM.
Procedure: as §4, §6, §7, §8, §9, §10, §12

T1 sequence (Q9UNQ0 whole entry, species assumed): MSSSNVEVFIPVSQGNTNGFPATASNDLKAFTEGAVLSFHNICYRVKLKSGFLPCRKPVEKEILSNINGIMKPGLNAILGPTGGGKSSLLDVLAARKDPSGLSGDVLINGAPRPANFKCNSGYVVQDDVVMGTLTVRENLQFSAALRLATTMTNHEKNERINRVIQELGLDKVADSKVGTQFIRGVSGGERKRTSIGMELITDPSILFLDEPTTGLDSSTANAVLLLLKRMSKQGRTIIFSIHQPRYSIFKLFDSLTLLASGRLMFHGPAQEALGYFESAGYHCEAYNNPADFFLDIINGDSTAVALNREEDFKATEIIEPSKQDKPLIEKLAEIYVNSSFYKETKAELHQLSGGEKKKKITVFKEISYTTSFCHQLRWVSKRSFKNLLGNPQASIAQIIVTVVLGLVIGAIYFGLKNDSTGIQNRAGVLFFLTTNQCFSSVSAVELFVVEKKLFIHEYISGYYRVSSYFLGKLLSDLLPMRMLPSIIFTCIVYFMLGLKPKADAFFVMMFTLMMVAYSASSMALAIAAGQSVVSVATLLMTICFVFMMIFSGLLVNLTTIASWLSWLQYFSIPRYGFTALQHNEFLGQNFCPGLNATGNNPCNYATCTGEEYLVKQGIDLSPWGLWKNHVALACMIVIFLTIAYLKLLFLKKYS
Chain of full-length FLAG-tagged B-Raf(V600E) (P15056 whole entry V600E): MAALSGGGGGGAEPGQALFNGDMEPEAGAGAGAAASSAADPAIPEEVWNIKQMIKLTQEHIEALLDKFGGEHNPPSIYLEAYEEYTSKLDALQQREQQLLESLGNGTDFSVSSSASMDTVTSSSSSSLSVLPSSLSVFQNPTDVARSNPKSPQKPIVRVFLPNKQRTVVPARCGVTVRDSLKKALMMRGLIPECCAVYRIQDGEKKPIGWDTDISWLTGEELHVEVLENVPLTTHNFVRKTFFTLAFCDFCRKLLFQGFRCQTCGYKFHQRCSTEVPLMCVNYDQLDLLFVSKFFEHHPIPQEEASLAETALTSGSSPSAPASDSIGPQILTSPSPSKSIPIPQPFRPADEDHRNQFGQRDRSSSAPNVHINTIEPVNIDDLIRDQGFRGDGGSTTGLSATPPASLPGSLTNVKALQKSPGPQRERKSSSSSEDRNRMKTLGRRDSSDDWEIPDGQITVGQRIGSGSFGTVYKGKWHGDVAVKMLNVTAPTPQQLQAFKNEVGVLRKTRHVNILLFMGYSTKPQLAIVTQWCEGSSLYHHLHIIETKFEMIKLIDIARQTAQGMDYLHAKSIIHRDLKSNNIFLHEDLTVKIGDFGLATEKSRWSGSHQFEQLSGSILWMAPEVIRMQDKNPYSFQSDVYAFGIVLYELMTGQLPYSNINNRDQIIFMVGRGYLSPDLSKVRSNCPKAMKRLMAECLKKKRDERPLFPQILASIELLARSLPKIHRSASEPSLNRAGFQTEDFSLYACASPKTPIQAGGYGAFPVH
T2 sequence (P08183 whole entry, species assumed): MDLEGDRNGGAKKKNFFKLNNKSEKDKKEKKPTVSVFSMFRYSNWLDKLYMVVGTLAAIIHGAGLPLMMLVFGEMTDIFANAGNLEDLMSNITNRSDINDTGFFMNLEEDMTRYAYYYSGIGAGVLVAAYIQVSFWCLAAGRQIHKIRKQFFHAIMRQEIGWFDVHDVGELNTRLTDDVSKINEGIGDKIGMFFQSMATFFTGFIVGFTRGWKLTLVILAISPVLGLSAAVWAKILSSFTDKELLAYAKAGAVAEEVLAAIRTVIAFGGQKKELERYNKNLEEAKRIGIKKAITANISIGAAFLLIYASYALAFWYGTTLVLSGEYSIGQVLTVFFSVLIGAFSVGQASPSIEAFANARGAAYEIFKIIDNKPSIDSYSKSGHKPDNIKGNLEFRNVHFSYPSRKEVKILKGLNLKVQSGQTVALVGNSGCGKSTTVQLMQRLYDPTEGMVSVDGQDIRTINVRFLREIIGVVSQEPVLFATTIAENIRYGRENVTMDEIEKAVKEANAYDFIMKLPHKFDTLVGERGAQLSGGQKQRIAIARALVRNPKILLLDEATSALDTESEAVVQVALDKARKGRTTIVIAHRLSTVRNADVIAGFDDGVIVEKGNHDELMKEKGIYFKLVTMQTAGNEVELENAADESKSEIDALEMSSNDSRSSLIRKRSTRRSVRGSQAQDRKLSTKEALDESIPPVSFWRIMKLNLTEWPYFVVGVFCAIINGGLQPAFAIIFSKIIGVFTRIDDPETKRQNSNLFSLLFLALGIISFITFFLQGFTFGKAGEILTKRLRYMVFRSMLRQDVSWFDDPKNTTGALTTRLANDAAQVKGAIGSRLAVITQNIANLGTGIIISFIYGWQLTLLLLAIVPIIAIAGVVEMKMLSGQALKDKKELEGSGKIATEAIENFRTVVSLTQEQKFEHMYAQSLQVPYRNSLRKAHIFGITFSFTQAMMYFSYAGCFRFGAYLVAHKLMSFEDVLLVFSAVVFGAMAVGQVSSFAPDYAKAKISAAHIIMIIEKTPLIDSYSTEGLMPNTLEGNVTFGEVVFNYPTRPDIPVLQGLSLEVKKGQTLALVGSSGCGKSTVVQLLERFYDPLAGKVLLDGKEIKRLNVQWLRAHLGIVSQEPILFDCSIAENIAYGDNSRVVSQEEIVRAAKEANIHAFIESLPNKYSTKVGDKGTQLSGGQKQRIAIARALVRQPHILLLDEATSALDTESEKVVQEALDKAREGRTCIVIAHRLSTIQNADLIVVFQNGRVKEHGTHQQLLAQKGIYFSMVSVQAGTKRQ
Chain of GST-tagged B-Raf(V600K) (P15056 2-766 V600K limits assumed): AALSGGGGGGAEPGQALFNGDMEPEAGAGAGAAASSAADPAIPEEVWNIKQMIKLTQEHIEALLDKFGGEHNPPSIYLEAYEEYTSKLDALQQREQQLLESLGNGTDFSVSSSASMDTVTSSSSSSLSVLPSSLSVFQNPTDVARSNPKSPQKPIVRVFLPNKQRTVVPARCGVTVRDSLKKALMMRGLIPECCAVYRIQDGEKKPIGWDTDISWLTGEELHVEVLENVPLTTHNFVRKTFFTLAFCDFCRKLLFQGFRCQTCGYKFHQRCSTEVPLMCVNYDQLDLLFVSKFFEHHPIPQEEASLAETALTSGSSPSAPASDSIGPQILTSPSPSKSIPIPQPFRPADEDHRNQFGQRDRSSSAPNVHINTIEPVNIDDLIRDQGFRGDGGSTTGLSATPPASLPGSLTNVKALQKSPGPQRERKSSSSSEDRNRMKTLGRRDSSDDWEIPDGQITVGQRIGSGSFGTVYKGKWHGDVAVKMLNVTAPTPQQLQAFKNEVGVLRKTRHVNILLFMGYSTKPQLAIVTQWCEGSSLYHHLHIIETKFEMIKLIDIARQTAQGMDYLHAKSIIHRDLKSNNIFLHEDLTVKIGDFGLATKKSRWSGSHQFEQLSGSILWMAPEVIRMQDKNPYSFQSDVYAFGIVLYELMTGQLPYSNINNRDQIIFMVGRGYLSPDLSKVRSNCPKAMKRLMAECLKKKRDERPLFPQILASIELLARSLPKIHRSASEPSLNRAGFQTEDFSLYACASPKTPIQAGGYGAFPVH

For the compound `Cc1c(Nc2c(F)cnc(NS(=O)(=O)CC3CC3)c2F)ccc2ncn(C)c(=O)c12` [Example 42, 1-cyclopropyl-N-(4-((3,5-dimethyl-4-oxo-3,4-dihydroquinazolin-6-yl)amino)-3,5-difluoropyridin-2-yl) methanesulfonamide], the “Permeability (*10^−6 cm/s)” value in [1] is 18.35 *10^−6 cm/s. In addition, the BCRP efflux ratio on BCRP [2] is 23.73. This compound also gave an IC50 in series [3] of 60.3 nM. The MDR1 efflux ratio at P-gp (MDR1) [4] is listed as 5.26.
For the compound `CCCS(=O)(=O)Nc1cc(Cl)cc(Nc2ccc3ncn(C)c(=O)c3c2C)c1Cl` [Example 48, N-(2,5-dichloro-3-((3,5-dimethyl-4-oxo-3,4-dihydroquinazoli-6-yl)amino)phenyl) propane-1-sulfonamide], the “Permeability (*10^−6 cm/s)” value in series [5] is given as 25.83 *10^−6 cm/s.
Still for that read-out and setting: for `CCN(C)S(=O)(=O)Nc1ccc(F)c(Nc2ccc3ncn(C)c(=O)c3c2C)c1Cl` [Example 54, N-(2-chloro-3-((3,5-dimethyl-4-oxo-3,4-dihydroquinazolin-6-yl)amino)-4-fluorophenyl)-N-ethyl-N-methylamino-1-sulfonamide] the value was 35.81 *10^−6 cm/s.
With `CCCS(=O)(=O)Nc1ccc(F)c(Oc2ccc3ncn(C)c(=O)c3c2C)c1Cl` [Example 55, N-{2-chloro-3-[(3,5-dimethyl-4-oxo-3,4-dihydroquinazolin-6-yl)oxy]-4-fluorophenyl}propane-1-sulfonamide], in series [6], the Papp at 2 h, 1 μM is 23.8 ×10⁻⁶ cm/s. The results for the efflux ratio at 2 h, 1 μM at BCRP [2] and at P-gp (MDR1) [4] were 0.83 and 1.1, respectively. In addition, in series [7], the Kp,uu (unbound brain-to-unbound plasma ratio) lay within 0.46 to 0.51. The IC50 on GST-tagged B-Raf(V600K) stood at 3.1 nM; in series [3], 5.4 nM.
For `CCCS(=O)(=O)Nc1ncc(F)c(Oc2ccc3ncn(C)c(=O)c3c2C)c1Cl` [Example 63, N-(3-chloro-4-((3,5-dimethyl-4-oxo-3,4-dihydroquinazolin-6-yl)oxy)-5-fluoropyridin-2-yl)propane-1-sulfonamide], in [6], the apparent permeability coefficient (Papp) at 2 h, 1 μM came to 26.1 ×10⁻⁶ cm/s. In addition, the efflux ratio at 2 h, 1 μM is 7.7 at BCRP [2] and 1.3 on P-gp (MDR1) [4]. For the same compound, the Kp,uu (unbound brain-to-unbound plasma ratio) in series [7] fell in the range of 0.34 to 0.4. For the same compound, the 50% inhibitory concentration (IC50) on GST-tagged B-Raf(V600K) amounted to 2.4 nM; in [3], 2.8 nM.
As to `CC(C)(C)c1nc(-c2cccc(NS(=O)(=O)c3c(F)cccc3F)c2F)c(-c2ccnc(N)n2)s1` [dabrafenib], the BCRP efflux ratio in the series with BCRP [8] was 21.0.
As for “N-(2-chloro-3-((3,5- dimethyl-4-oxo-3,4- dihydroquinazolin-6- yl)amino)-4- fluorophenyl) benzenesulfonamide [Example 49]”, the “Permeability (*10^−6 cm/s)” value in series [1] is recorded as 30.68 *10^−6 cm/s. Further, the BCRP efflux ratio at BCRP [2] was 0.97. For the same compound, the IC50 in series [3] turned out to be 3.95 nM. Also, the MDR1 efflux ratio at P-gp (MDR1) [4] amounted to 1.24.
For “N-(2-chloro-3-((3,5- dimethyl-4-oxo-3,4- dihydroquinazolin-6- yl)amino)-4- fluorophenyl) ethanesulfonamide [Example 52]”, in [1], the “Permeability (*10^−6 cm/s)” value is given as 28.91 *10^−6 cm/s. Moreover, the BCRP efflux ratio on BCRP [2] stood at 1.28. This compound also came in with an IC50 in [3] of 226 nM. Also, at P-gp (MDR1) [4], the MDR1 efflux ratio is recorded as 1.76.
In the case of “N-(2-chloro-3-((3,5- dimethyl-4-oxo-3,4- dihydroquinazolin-6- yl)amino)-4- fluorophenyl)-1- cyclopropyl- methanesulfonamide [Example 50]”, the “Permeability (*10^−6 cm/s)” value in series [1] was 21.88 *10^−6 cm/s. Moreover, on BCRP [2], the BCRP efflux ratio was 1.13. In series [3], this compound registered a 50% inhibitory concentration (IC50) of 66.1 nM. On P-gp (MDR1) [4], the MDR1 efflux ratio was 1.54.
Consider “N-(2-chloro-3-((3,5- dimethyl-4-oxo-3,4- dihydroquinazolin-6- yl)amino)-4- fluorophenyl)-2- methylpropane-1- sulfonamide [Example 51]”, for which the “Permeability (*10^−6 cm/s)” value in [1] is given as 27.16 *10^−6 cm/s. Further, the BCRP efflux ratio on BCRP [2] turned out to be 1.28. In addition, in series [3], the IC50 is 63.4 nM. Also, the MDR1 efflux ratio at P-gp (MDR1) [4] came to 1.64.
Consider “N-(2-chloro-3-((3,5- dimethyl-4-oxo-3,4- dihydroquinazolin-6- yl)amino)-5- fluorophenyl)-3- fluoropropane-1- sulfonamide [Example 44]”, for which, in [1], the “Permeability (*10^−6 cm/s)” value was 24.2 *10^−6 cm/s. On BCRP [2], the BCRP efflux ratio came out at 2.84. In series [3], the IC50 came out at 6.05 nM. Moreover, the MDR1 efflux ratio on P-gp (MDR1) [4] stood at 1.05.
With “N-(2-cyano-3-((3,5- dimethyl-4-oxo-3,4- dihydroquinazolin-6- yl)amino)phenyl) propane-1-sulfonamide [Example 53]”, on P-gp (MDR1) [9], the MDR1 efflux ratio was found to be 2.6. Moreover, the “Permeability (*10^−6 cm/s)” value in series [5] (2 h, 1 μM) was 27.13 *10^−6 cm/s. The IC50 in series [3] came out at 9.4 nM. Moreover, the BCRP efflux ratio at BCRP [10] is recorded as 22.97.
On the same counts, the results for “N-(3-((3,5-dimethyl-4- oxo-3,4- dihydroquinazolin-6- yl)amino)-2-fluoro-5- methylphenyl)propane- 1-sulfonamide [Example 46]” are 1.43, 30.74 *10^−6 cm/s, 148 nM and 1.48.
Regarding “N-(3-chloro-4-((3,5- dimethyl-4-oxo-3,4- dihydroquinazolin-6- yl)amino)-5- fluoropyridin-2- yl)ethanesulfonamide [Example 45]”, the “Permeability (*10^−6 cm/s)” value in series [1] was 16.56 *10^−6 cm/s. The BCRP efflux ratio on BCRP [2] came to 11.29. In series [3], this compound displayed an IC50 of 137 nM. Moreover, the MDR1 efflux ratio at P-gp (MDR1) [4] came to 2.47.
“N-(3-chloro-4-((3,5- dimethyl-4-oxo-3,4- dihydroquinazolin-6- yl)amino)-5- fluoropyridin-2-yl)-1- cyclopropyl- methanesulfonamide [Example 47]”: the “Permeability (*10^−6 cm/s)” value in [1] is 25.7 *10^−6 cm/s. The BCRP efflux ratio on BCRP [2] stood at 7.93. In series [3], this compound came in with an IC50 of 41.7 nM. In addition, on P-gp (MDR1) [4], the MDR1 efflux ratio is given as 1.84.
The corresponding values for “N-(4-((3,5-dimethyl-4- oxo-3,4- dihydroquinazolin-6- yl)amino)-3,5- difluoropyridin-2- yl)ethanesulfonamide [Example 43]” are 8.75 *10^−6 cm/s, 26.02, 260 nM and 5.24.
